The subject of the test is wound in diabetes mouse (db/db mouse) model. Briefly: Effect of compound A on wound in diabetes mouse (db/db mouse) model. Type of test: in vivo. To be noted: for wound area ratio: 0.05 mL once a day, mean±standard error, n=8. As to the method:
The compound A was weighed in the required amount, and polyethylene glycol 400 (PEG400) was added to the compound to prepare liquids having final concentrations of the compound of 0.001, 0.01, and 0.1 w/v %. In order to prepare ointments having final concentrations of the compound of 0.0005, 0.005, and 0.05 w/w %, PEG4000 melted by warming at 65° C. was added to the liquids, and the liquids were stirred until they solidified at room temperature to prepare ointments having concentrations of the compound of 0.0005, 0.005, and 0.05 w/w %.
Diabetes mice (db/db mice) were anesthetized with isoflurane, and a 1.5-cm square of skin including the back median line as the center axis of each mouse was removed with ophthalmic scissors. A polyurethane film was stuck so as to cover the skin-lacking wound part and surrounding parts to prepare the wound.
The administration was performed once a day at a volume of 0.05 mL. As for the administration method, the administration was performed with a disposable polypropylene injection syringe attached to a 23G needle by inserting the needle into a gap between the wound and the polyurethane film covering the wound part. On the day when the wound was produced and the days when the wound area was measured, the compound was administered to the wound part by using a disposable polypropylene injection syringe attached to a 23G needle before sticking the polyurethane film.
On days 14 to 20 of the administration (the day on which the administration was started is day 1 of the administration), the administration was performed by peeling off the polyurethane film under isoflurane anesthesia, cleaning the wound with absorbent cotton containing physiological saline, administering the ointment with a disposable polypropylene injection syringe, and then the polyurethane film was stuck on again.
On days 1, 4, 8, 12, 16, and 21 of the administration, the wound part was traced. That is, after the polyurethane film was removed (in the case of the day 1 of the administration, before the administration and sticking of the film), a plastic sheet was placed on the wound part, the contour of the wound part was traced on the plastic sheet (tracing was performed by using a felt pen so that the external periphery of the wound part would coincide with the internal periphery of the line drawn with the felt pen), and a copy of the sheet on which tracing was performed was used as the source of raw data. The area of the inside of the traced line (mm^2) was measured once using an area-line meter (PLANIX EX, Tamaya Technics Inc.) on the copy of the sheet on which tracing was performed. The results are expressed as ratio of change (%) calculated from the wound area (mm^2) of each measurement day, and the wound area (mm^2) of the day 1 of the wound creation (before administration).
Significant difference test was performed by using a commercial statistical analysis program (SAS System, SAS Institute Japan, Inc.). Statistical significance levels lower than 5% were considered to be significant, and the results are indicated as those of the level lower than 5% (*; p<0.05) and those of the level lower than 1% (**; p<0.01).
As for the test method, the multiple comparison of Dunnett's method was used for the comparison between the vehicle-administered group and compound A-administered groups.

Marks after values point to notes of the source that are not given here.

Regarding `Cc1cc2c(CCc3sc(-c4ccc(C(F)(F)F)cc4)nc3C(C)C)noc2cc1OCC(=O)O` [compound A, [3-[2-[4-isopropyl-2-(4-trifluoromethyl)phenyl-5-thiazolyl]ethyl]-5-methyl-1,2-benzisoxazol-6-yl]oxyacetic acid], the wound area ratio is, setting by setting: (0.0005% compound A ointment, day 1 of administration) 100.0 ± 0.0%; (0.0005% compound A ointment, day 4 of administration) 96.9 ± 1.7%; (0.0005% compound A ointment, day 8 of administration) 95.2 ± 2.4%; (0.0005% compound A ointment, day 12 of administration) 82.9 ± 2.7%; (0.0005% compound A ointment, day 16 of administration) 73.4 ± 2.7%; (0.0005% compound A ointment, day 21 of administration) 67.6 ± 3.8%. Further, the wound area ratio reads like this: (0.005% compound A ointment, day 1 of administration) 100.0 ± 0.0%; (0.005% compound A ointment, day 4 of administration) 97.2 ± 2.4%; (0.005% compound A ointment, day 8 of administration) 95.0 ± 2.2%; (0.005% compound A ointment, day 12 of administration) 84.1 ± 1.6%; (0.005% compound A ointment, day 16 of administration) 72.1 ± 1.7%; (0.005% compound A ointment, day 21 of administration) 69.1 ± 3.0%. Further, the wound area ratio runs as follows: (0.05% compound A ointment, day 1 of administration) 100.0 ± 0.0%; (0.05% compound A ointment, day 4 of administration) 96.0 ± 2.1%; (0.05% compound A ointment, day 8 of administration) 90.3 ± 2.6* %; (0.05% compound A ointment, day 12 of administration) 78.6 ± 1.6** %; (0.05% compound A ointment, day 16 of administration) 69.2 ± 2.1%; (0.05% compound A ointment, day 21 of administration) 65.5 ± 2.1%. Moreover, the “wound area compared with the vehicle-administered group” value (0.05% compound A-administered group, day 8 and day 12 of the administration) is listed as “significantly smaller”.

For the origin of these results see patent publication US20190255022A1, “WOUND-HEALING AGENT” (NIPPON CHEMIPHAR CO., LTD., priority 2016, published 2019).
